{"source": "PubChem BioAssay AID2060900", "about": "(Molecular Pharmacology Branch, DTP, NCI, 2025);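 further: compound exposure lasted seven days before the viability read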;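 on viability, T/C: spheroids also contain HUVEC endothelial cells and mesenchymal stem cells as stroma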", "tested_on": "521955-158-R2-J5-PDC complex spheroids, viability", "assay": "Anticancer human tumor 521955-158-R2-J5-PDC patient-derived pancreatic carcinoma cell line growth inhibition [RAS]", "settings": "for viability, T/C: stronger effect = lower value", "text": "RAS pathway inhibitors in Combinations in Complex Spheroids\nA high-throughput screen of multi-cell type tumor spheroids was designed to identify active combinations of RAS pathway inhibitors and targeted small molecules. Complex spheroids include a stromal component modeled by human endothelial cells (HUVEC) and fibroblasts modeled by human mesenchymal stem cells (MSCs). The concentration ranges selected for each drug and investigational agent were based upon clinically achievable concentrations if the clinical Cmax of the agent was known.\nCompounds. The drugs and investigational agents: abemaciclib (NSC768073), cobimetinib (NSC768068), divarasib (GDC6063, NSC841802), docetaxel (NSC628503), GDC-1971 (RLY-1971, NSC841576), gemcitabine (NSC613327), inavolisib (NSC800729), ipatasertib (NSC767898), KB-0742 (NSC834161), MRTX-1133 (NSC836407), osimertinib (NSC779217), RMC-4630 (NSC839698), RMC-6236 (NSC851965), RMC-6291 (NSC852671), Ro-3306 (NSC812927), sapanisertib (NSC764658), SN-38 (NSC673596), staurosporine (NSC755774), SY5609 (NSC837396), and tovorafenib (DAY101, NSC766906), were obtained from the National Cancer Institute (NCI) Developmental Therapeutics Program Chemical Repository. The FDA-approved anticancer drug set is available from the NCI Developmental Therapeutics Program. […] The stock solutions were prepared in dimethyl sulfoxide (DMSO, Sigma-Aldrich, St. Louis, MO, cat. D2650) at 800-fold the tested concentration and stored at -70 degrees C prior to their use. All drugs and investigational agents were tested over a range starting from a high concentration at or near the clinical Cmax and decreasing in half-log increments. If the clinical Cmax for an agent had not been determined, the highest concentration tested was 10 microM.\nCell Culture. All cells were maintained in an incubator at 37 degrees C and 5% CO2 with 95% humidity. The PDC lines were cultured according to standard operating procedures established by the NCI PDMR. All PDCs were thawed and cultured in Matrigel-coated flasks prepared with a working solution of 1X Ham's F-12 nutrient mix, without supplementation (Invitrogen, Waltham, MA, cat. 11765054), 100 U/mL penicillin-streptomycin (Invitrogen, cat. 15140122), and 2.5% Matrigel (Corning Inc., Corning, NY, cat. 354248) for the first three passages. The 362531-283-R-J2-PDC and 782815-120-R-J1-PDC lines were cultured in 6C/Colon 1B media, which includes advanced DMEM/F-12 (Thermo Fisher Scientific, cat. 12634028), 10 mM HEPES (Thermo Fisher Scientific, cat. 15630080), 1X GlutaMAX supplement (Thermo Fisher Scientific, cat. 35050061), 0.1 mg/mL primocin (InvivoGen, San Diego, CA, cat. ant-pm-2), 10% defined fetal bovine serum, heat inactivated (HyClone Laboratories Inc., Logan, UT, cat. SH30070.03HI), 50% L-WRN conditioned media (ATCC, cat. CRL-3276), 1.25 mM N-Acetyl-L-cysteine (Sigma-Aldrich, cat. A9165), 10 mM nicotinamide (Sigma-Aldrich, cat. N0636), 1X B-27 supplement (Thermo Fisher Scientific, cat. 17504044), 1X N-2 supplement (Thermo Fisher Scientific, cat. 17502048), 50 ng/mL human EGF (Thermo Fisher Scientific, cat. PHG0311), and 10 microM Y-27632 dihydrochloride (Tocris Bioscience, cat. 1254). The K12877-001-R-J1-PDC line was cultured in 6I media, which includes all 6C/Colon 1B media plus 10 ng/mL human FGF-10 (PeproTech, cat. 100-26), 1 ng/mL human FGF-2 (PeproTech, cat. 100-18B), 1 µM prostaglandin E2 (Tocris Bioscience, cat. 2296), […] hydrocortisone (Sigma-Aldrich, cat. H4001), and […] bovine insulin (Sigma-Aldrich, cat. I6634). The K86415-001-R-J1-PDC line was cultured in 6D media, which includes all 6C/Colon 1B media components minus the L-WRN conditioned media. The 485176-168-R4-J1-PDC was cultured in PANC media, which includes all 6C/Colon 1B media plus 100 ng/mL human FGF-10 (PeproTech, cat. 100-26), 500 nM SB-431542 (Selleckchem, cat. S1067), and 10 nM gastrin (Tocris Bioscience, cat. 3006). […]"}
{"smiles": "Cc1nc(N2CCC3(CC2)COC(C)C3N)c(CO)nc1Sc1ccnc(N)c1Cl", "note": "(configuration not stated) + C=CC(=O)N1CCN(c2nc(OCC3CCCN3C)nc3c(F)c(-c4nc(N)cc(C)c4C(F)(F)F)c(Cl)cc23)C(C)C1", "values": [{"measurement": "IC50", "setting": "curve of first compound, second compound 0.00316 µM", "value": "> 10", "unit": "µM"}, {"measurement": "IC50", "setting": "curve of first compound, second compound 0.01 µM", "value": "> 10", "unit": "µM"}, {"measurement": "IC50", "setting": "curve of first compound, second compound 0.0316 µM", "value": "> 10", "unit": "µM"}, {"measurement": "IC50", "setting": "curve of first compound, second compound 0.1 µM", "value": "> 10", "unit": "µM"}, {"measurement": "IC50", "setting": "curve of first compound, second compound 0.316 µM", "value": "> 10", "unit": "µM"}, {"measurement": "IC50", "setting": "curve of first compound, second compound 1 µM", "value": "> 10", "unit": "µM"}, {"measurement": "viability, T/C", "setting": "second compound 0.00316 µM, first compound 0.0316 µM", "value": 88.7, "unit": "%"}, {"measurement": "viability, T/C", "setting": "second compound 0.00316 µM, first compound 0.1 µM", "value": 77.2, "unit": "%"}, {"measurement": "viability, T/C", "setting": "second compound 0.00316 µM, first compound 0.316 µM", "value": 69.8, "unit": "%"}, {"measurement": "viability, T/C", "setting": "second compound 0.00316 µM, first compound 1 µM", "value": 70.5, "unit": "%"}, {"measurement": "viability, T/C", "setting": "second compound 0.00316 µM, first compound 3.16 µM", "value": 60.1, "unit": "%"}, {"measurement": "viability, T/C", "setting": "second compound 0.00316 µM, first compound 10 µM", "value": 56.8, "unit": "%"}, {"measurement": "viability, T/C", "setting": "second compound 0.01 µM, first compound 0.0316 µM", "value": 81.2, "unit": "%"}, {"measurement": "viability, T/C", "setting": "second compound 0.01 µM, first compound 0.1 µM", "value": 79, "unit": "%"}, {"measurement": "viability, T/C", "setting": "second compound 0.01 µM, first compound 0.316 µM", "value": 64.6, "unit": "%"}, {"measurement": "viability, T/C", "setting": "second compound 0.01 µM, first compound 1 µM", "value": 64.2, "unit": "%"}, {"measurement": "viability, T/C", "setting": "second compound 0.01 µM, first compound 3.16 µM", "value": 60.3, "unit": "%"}, {"measurement": "viability, T/C", "setting": "second compound 0.01 µM, first compound 10 µM", "value": 63.3, "unit": "%"}, {"measurement": "viability, T/C", "setting": "second compound 0.0316 µM, first compound 0.0316 µM", "value": 73.8, "unit": "%"}, {"measurement": "viability, T/C", "setting": "second compound 0.0316 µM, first compound 0.1 µM", "value": 90.9, "unit": "%"}, {"measurement": "viability, T/C", "setting": "second compound 0.0316 µM, first compound 0.316 µM", "value": 72.1, "unit": "%"}, {"measurement": "viability, T/C", "setting": "second compound 0.0316 µM, first compound 1 µM", "value": 71.6, "unit": "%"}, {"measurement": "viability, T/C", "setting": "second compound 0.0316 µM, first compound 3.16 µM", "value": 60.7, "unit": "%"}, {"measurement": "viability, T/C", "setting": "second compound 0.0316 µM, first compound 10 µM", "value": 56.9, "unit": "%"}, {"measurement": "viability, T/C", "setting": "second compound 0.1 µM, first compound 0.0316 µM", "value": 101, "unit": "%"}, {"measurement": "viability, T/C", "setting": "second compound 0.1 µM, first compound 0.1 µM", "value": 78.5, "unit": "%"}, {"measurement": "viability, T/C", "setting": "second compound 0.1 µM, first compound 0.316 µM", "value": 70.5, "unit": "%"}, {"measurement": "viability, T/C", "setting": "second compound 0.1 µM, first compound 1 µM", "value": 63.2, "unit": "%"}, {"measurement": "viability, T/C", "setting": "second compound 0.1 µM, first compound 3.16 µM", "value": 63, "unit": "%"}, {"measurement": "viability, T/C", "setting": "second compound 0.1 µM, first compound 10 µM", "value": 54.1, "unit": "%"}, {"measurement": "viability, T/C", "setting": "second compound 0.316 µM, first compound 0.0316 µM", "value": 100, "unit": "%"}, {"measurement": "viability, T/C", "setting": "second compound 0.316 µM, first compound 0.1 µM", "value": 80.3, "unit": "%"}, {"measurement": "viability, T/C", "setting": "second compound 0.316 µM, first compound 0.316 µM", "value": 61, "unit": "%"}, {"measurement": "viability, T/C", "setting": "second compound 0.316 µM, first compound 1 µM", "value": 61.3, "unit": "%"}, {"measurement": "viability, T/C", "setting": "second compound 0.316 µM, first compound 3.16 µM", "value": 64.8, "unit": "%"}, {"measurement": "viability, T/C", "setting": "second compound 0.316 µM, first compound 10 µM", "value": 56, "unit": "%"}, {"measurement": "viability, T/C", "setting": "second compound 1 µM, first compound 0.0316 µM", "value": 106, "unit": "%"}, {"measurement": "viability, T/C", "setting": "second compound 1 µM, first compound 0.1 µM", "value": 70.1, "unit": "%"}, {"measurement": "viability, T/C", "setting": "second compound 1 µM, first compound 0.316 µM", "value": 66.5, "unit": "%"}, {"measurement": "viability, T/C", "setting": "second compound 1 µM, first compound 1 µM", "value": 62.6, "unit": "%"}, {"measurement": "viability, T/C", "setting": "second compound 1 µM, first compound 3.16 µM", "value": 55.3, "unit": "%"}, {"measurement": "viability, T/C", "setting": "second compound 1 µM, first compound 10 µM", "value": 48.3, "unit": "%"}]}
{"smiles": "CC(=O)OC12COC1CC(O)C1(C)C(=O)C(O)C3=C(C)C(OC(=O)C(O)C(NC(=O)OC(C)(C)C)c4ccccc4)CC(O)(C(OC(=O)c4ccccc4)C21)C3(C)C", "note": "(configuration not stated)", "values": [{"measurement": "viability, T/C", "setting": "compound 0.0316 µM", "value": "38.4% [middle of 4 runs]"}, {"measurement": "viability, T/C", "setting": "compound 0.316 µM", "value": "27.9% [middle of 4 runs]"}, {"measurement": "viability, T/C", "setting": "compound 1 µM", "value": "35% [middle of 4 runs]"}, {"measurement": "viability, T/C", "setting": "compound 3.16 µM", "value": "42.6% [middle of 4 runs]"}, {"measurement": "IC50", "setting": "curve of compound", "value": "< 0.0316", "unit": "µM"}]}
